Tests used:
Type in all cases: in vivo, human
[1] = test system: patients with migraine headache; experiment: capsaicin cream applied to nasal mucosa in migraine headache; conditions: 0.025% by weight capsaicin cream to nasal mucosa
[2] = test system: patients with migraine headache disorder; experiment: intranasal capsaicin cream for acute migraine pain, two patients; conditions: 0.025% by weight capsaicin cream intranasally, both of two migraine patients
Description: Two patients with migraine headache disorder were administered 0.025% by weight capsaicin cream intranasally for acute relief of their migraine pain. Both reported increased lacrimation within 30 minutes of application of the capsaicin cream.

[3] = test system: episodic cluster headache patients; experiment: civamide nasal spray versus inactive control in episodic cluster headache; conditions: 0.01% by weight civamide nasal spray twice daily, 36 patients
[4] = test system: patients with vasomotor rhinitis (non-allergic rhinitis); experiment: double-blind placebo-controlled 2 week evaluation of civamide nasal spray in vasomotor rhinitis; conditions: 0.01% by weight civamide nasal spray, 2 weeks
Excerpt: Fifty-five (55) patients with vasomotor rhinitis (non-allergic rhinitis) participated in a double-blind placebo-controlled 2 week evaluation of the symptomatic relief afforded patients by 0.01% by weight civamide nasal spray or placebo nasal spray (vehicle for active product). Thirty-one percent (31%) of patients using 0.01% civamide spray reported increased tearing, while 0% of patients on placebo noted such a side effect.

[5] = test system: normal volunteers; experiment: multi-dose 14 day tolerance study of civamide nasal spray; conditions: 14 days, 10 normal volunteers
[6] = test system: patients with episodic cluster headache; experiment: civamide nasal drops in episodic cluster headache; conditions: 0.025% by weight civamide nasal drops once daily for 1 week, 9 of 18 patients
Excerpt: In a study utilizing 0.025% by weight civamide nasal drops administered once daily for 1 week to 28 patients with episodic cluster headache (a severe form of vasomotor headache that occurs in general 4-24 week clusters), 9 of 18 patients (50%) on civamide nasal drops had increased tearing versus 0 of 10 patients (0%) on vehicle control.

Row | Compound | patients who reported increased tearing as a side effect [1] [%] | patients who noted some relief of their headaches ([1]; 4 hours after administration) [%] | time to reported increased lacrimation after application [2] [min] | patients who reported increased tearing [3] [%] | patients who reported increased tearing [4] [%] | subjects who experienced increased lacrimation (tear production) ([5]; 0.0075% by weight civamide nasal spray twice daily) [%] | subjects who experienced increased lacrimation (tear production) ([5]; 0.01% by weight civamide nasal spray twice daily) [%] | subjects who experienced increased tearing ([5]; […] by weight civamide nasal spray once daily) [%] | patients who had increased tearing [6] [%]
1 | COc1cc(CNC(=O)CCCC/C=C/C(C)C)ccc1O [capsaicin] | 44 | 73 | ≤ 30 |  |  |  |  |  | 
2 | COc1cc(CNC(=O)CCCC/C=C\C(C)C)ccc1O [civamide, cis-8-methyl-N-vanillyle-nonenamide] |  |  |  | 51 | 31 | 100 | 100 | 90 | 50

Source: patent publication US20090093446A1, “METHOD FOR ALLEVIATING KERATOCONJUNCTIVITIS SICCA” (priority 2007, published 2009)
